In US20120077804A1, “Small Molecule Inhibitors of RNA Silencing” (The Regents of the University of California, priority 2007, published 2012):

Columns and labels:
[1] = tested on: RNAi-mediated innate immunity against virus infection in cultured Drosophila cells; experiment: Cell-based high throughput screen, GFP expression in R1gfp cells after induction of FHV replication
Description: A cell-based high throughput screening protocol for the identification of chemical inhibitors of the RNAi-mediated innate immunity against virus infection in cultured Drosophila cells has been established. The system is based on Flock house virus (FHV), an animal Nodavirus that contains a bipartite RNA genome. FHV RNA2 encodes the single virion structural protein, whereas FHV RNA1 encodes the viral RNA-dependent RNA polymerase (RdRP) and B2, a viral suppressor of RNAi (VSR) expressed after RNA1 replication from its own mRNA, RNA3. In the absence of RNA2, RNA1 replicates autonomously, accumulates to high levels, and produces abundant RNA3 in Drosophila cells. […] Similarly, green fluorescence is not detectable in wild type Drosophila cells transfected with pR1gfp, which encodes a recombinant RNA1 in which the viral B2 gene is replaced with green fluorescent protein (GFP) gene. A stable Drosophila Schneider 2 cell line has been established, and carries pR1gfp, called line R1gfp. R1gfp cells were seeded in 96-well plates and incubated overnight with chemicals from ChemBridge Diverset Library before FHV replication was induced. Expression of GFP was screened in R1gfp cells two days following the induction of FHV replication (see, Li et al., Proc Natl Acad Sci USA 2004, 101(5), 1350-5).

[2] = tested on: RNAi induced by synthetic double-stranded RNA (dsRNA); experiment: Northern blot of Cyclin A mRNA in S2 cells, RNAi induced by synthetic dsRNA (dsCycA); format: cell-based, Drosophila; conditions: for Degradation of cyclin A mRNA targeted by dsCycA: dsCycA plus 30 μM compound
Description: FIG. 2 illustrates the northern blot detection of Cyclin A mRNA in S2 cells.
Degradation of cyclin A mRNA occurred in S2 cells transfected with a dsRNA specific to cyclin A (dsCycA) (see, FIG. 2, lanes 1-2), but not in cells treated with a GFP-specific dsRNA (dsGFP) (see, FIG. 2, lane 8). […] Similar inhibition of cyclin A RNAi was also observed in cells co-transfected with a dsRNA targeting mRNA of Drosophila Ago2 (see, FIG. 2, lane 9), which is essential for RNAi in Drosophila.

Question: Which “Inhibition of RNAi-mediated viral immunity (detection of green fluorescence)” value [1] does the source give for `COc1ccc(CN2CCN(S(=O)(=O)c3ccc(C)cc3)CC2)cc1OCc1ccccc1` [Rin2, 1-[3-(benzyloxy)-4-methoxybenzyl]-4-[(4-methylphenyl)sulfony]piperazine] here?
Answer: inhibit the RNAi-mediated viral immunity

Question: What about the “Inhibition of RNAi induced by synthetic double-stranded RNA (dsRNA)” value [2] of the same compound?
Answer: active inhibitors

Question: And the “Degradation of cyclin A mRNA targeted by dsCycA” value [2]?
Answer: partially inhibited

Question: How did the “Inhibition of RNAi-mediated viral immunity (detection of green fluorescence)” value [1] turn out when `CCN(CC)c1ccc(/C=C2/C(=O)NN(c3ccc(C)c(Cl)c3)C2=O)c(O)c1` [Rin3, 1-(3-chloro-4-methylphenyl)-4-[4-(diethylamino)-2-hydroxybenzylidene]-3,5-pyrazolidinedione] was run?
Answer: inhibit the RNAi-mediated viral immunity

Question: What about the “Inhibition of RNAi induced by synthetic double-stranded RNA (dsRNA)” value [2] of the same compound?
Answer: active inhibitors

Question: And the “Degradation of cyclin A mRNA targeted by dsCycA” value [2]?
Answer: partially inhibited
